Source: paper PMC8744835, “Sterically Hindered Quaternary Phosphonium Salts (QPSs): Antimicrobial Activity and Hemolytic and Cytotoxic Properties” (International Journal of Molecular Sciences, 2021)
In brackets after ≈: the same amount, converted by molar mass.

What was measured:
[1] = tested on: methicillin-resistant S. aureus MRSA-1; test: Antimicrobial activity, serial dilution technique in Mueller–Hinton Broth 2; assay type: cell-based, Staphylococcus aureus; conditions: - means non-active; for MIC: read-out: Minimum Inhibitory Concentration (MIC), MRSA-1
Experimental: (§1) The synthesized compounds were tested for antimicrobial activity against a number of Gram-positive bacteria, Staphylococcus aureus (Sa), Bacillus cereus (Bc) and Enterococcus faecalis (Ef), and Gram-negative bacteria, Escherichia coli (Ec) and Pseudomonas aeruginosa (Pa), including the methicillin-resistant strains S. aureus MRSA-1 (resistant to fluoroquinolones and beta-lactams) and MRSA-2 (resistant to beta-lactams). The methicillin-resistant strains S. aureus were transferred by the Republican Clinical Hospital of the Republic of Tatarstan (Kazan). The fungicidal activity against Candida albicans (Ca) and Trichophyton mentagrophytes var. gypseum (Tm) was studied. These pathogens were chosen because they are the most widespread in the food industry and the healthcare system.
(§2) The antimicrobial activity of the QPSs was determined using the serial dilution technique in Mueller–Hinton Broth 2. The cultures used for testing included the Gram-positive bacteria Staphylococcus aureus ATCC 6538P FDA 209P, Enterococcus faecalis ATCC 2921 and Bacillus cereus ATCC 10702 NCTC 8035, the Gram-negative bacteria Escherichia coli ATCC 25922 and Pseudomonas aeruginosa ATCC 9027, and the fungi Trichophyton mentagrophytes var. gypseum 1773 and Candida albicans ATCC 10231; methicillin-resistant strains of S. aureus MRSA were obtained from hospital patients with chronic tonsillitis (MRSA-1) and sinusitis (MRSA-2) in the Republican Clinical Hospital (Kazan, Russia). […] The bacterial load was 3.0 × 10^5 cfu/mL. The results were recorded every 24 h for 5 days. The cultures were incubated at 37 °C. The experiment was repeated three times. […] The minimum inhibitory concentration (MIC) was defined as the minimum concentration of a compound that inhibits the growth of the corresponding test micro-organism. The growth of bacteria as well as the absence of growth due to the bacteriostatic action of a compound was recorded.

[2] = tested on: methicillin-resistant S. aureus MRSA-2; test: as above; assay type: cell-based, Staphylococcus aureus; conditions: - means non-active; for MIC: MRSA-2 (resistant to beta-lactams), read-out: Minimum Inhibitory Concentration (MIC), MRSA-2
Experimental: as §1, §2

[3] = tested on: Escherichia coli ATCC 25922; test: as above; assay type: cell-based; conditions: Escherichia coli, ATCC25922, Ec; average of three ± SD; - means non-active; read-out: Minimum Bactericidal and Fungicidal Concentration (MBC, MFC), Ec
[4] = tested on: Bacillus cereus ATCC 10702 NCTC 8035; test: as above; assay type: cell-based; conditions: Bacillus cereus, Bc, average of three ± SD, - means non-active; for MBC: read-out: Minimum Bactericidal and Fungicidal Concentration (MBC, MFC), Bc; for MIC: read-out: Minimum Inhibitory Concentration (MIC), Bc
Experimental: as §1, §2

[5] = tested on: Staphylococcus aureus ATCC 6538P FDA 209P; test: as above; assay type: cell-based; conditions: average of three ± SD, - means non-active; for MIC: read-out: Minimum Inhibitory Concentration (MIC), Sa
Experimental: as §1, §2

[6] = tested on: Escherichia coli ATCC 25922; test: as above; assay type: cell-based; conditions: average of three ± SD, - means non-active
Experimental: as §1, §2

[7] = tested on: Pseudomonas aeruginosa ATCC 9027; test: as above; assay type: cell-based; conditions: average of three ± SD, - means non-active
Experimental: as §1, §2

[8] = tested on: Enterococcus faecalis ATCC 2921; test: as above; assay type: cell-based; conditions: Enterococcus faecalis, ATCC2921, Ef, average of three ± SD, - means non-active; for MBC: read-out: Minimum Bactericidal and Fungicidal Concentration (MBC, MFC), Ef; for MIC: read-out: Minimum Inhibitory Concentration (MIC), Ef
Experimental: as §1, §2

[9] = tested on: Candida albicans ATCC 10231; test: Fungicidal activity, serial dilution technique; assay type: cell-based; conditions: average of three ± SD, - means non-active; for MIC: read-out: Minimum Inhibitory Concentration (MIC), Ca
Experimental: as §1
(§3) The antimicrobial activity of the QPSs was determined using the serial dilution technique in Mueller–Hinton Broth 2. The cultures used for testing included the Gram-positive bacteria Staphylococcus aureus ATCC 6538P FDA 209P, Enterococcus faecalis ATCC 2921 and Bacillus cereus ATCC 10702 NCTC 8035, the Gram-negative bacteria Escherichia coli ATCC 25922 and Pseudomonas aeruginosa ATCC 9027, and the fungi Trichophyton mentagrophytes var. gypseum 1773 and Candida albicans ATCC 10231; methicillin-resistant strains of S. aureus MRSA were obtained from hospital patients with chronic tonsillitis (MRSA-1) and sinusitis (MRSA-2) in the Republican Clinical Hospital (Kazan, Russia). Ciprofloxacin and ketoconazole were purchased from Sigma-Aldrich. The bacterial load was 3.0 × 10^5 cfu/mL. The results were recorded every 24 h for 5 days. The cultures were incubated at 37 °C. The experiment was repeated three times. […] The minimum inhibitory concentration (MIC) was defined as the minimum concentration of a compound that inhibits the growth of the corresponding test micro-organism. The growth of bacteria as well as the absence of growth due to the bacteriostatic action of a compound was recorded.

[10] = tested on: Trichophyton mentagrophytes var. gypseum 1773; test: Fungicidal activity, serial dilution technique; assay type: cell-based
Experimental: as §1, §3

[11] = Staphylococcus aureus, MRSA, MRSA-1 (resistant to fluoroquinolones and beta-lactams)
[12] = Candida albicans, ATCC10231, Ca, read-out: Minimum Bactericidal and Fungicidal Concentration (MBC, MFC), Ca
[13] = Tm, average of three ± SD, - means non-active
[14] = Candida albicans, ATCC10231, Ca
[15] = Trichophyton mentagrophytes, read-out: Minimum Bactericidal and Fungicidal Concentration (MBC, MFC), Tm

MIC [1, 11] [µg/mL]	MIC ([2]; Staphylococcus aureus, MRSA) [µg/mL]	MIC [4] [µg/mL]	MIC ([5]; Staphylococcus aureus, Sa) [µg/mL]	MIC [8] [µg/mL]	SMILES	MBC [3] [µg/mL]	MBC [4] [µg/mL]	MBC [8] [µg/mL]	Minimum Inhibitory Concentration (MIC), Ca [9] [µg/mL]	MBC [9, 12] [µg/mL]	Minimum Inhibitory Concentration (MIC), Tm [10, 13] [µg/mL]	MIC [9, 14] [µg/mL]	also measured
1.9 ± 0.1	0.5 ± 0.03	1.9 ± 0.1	0.5 ± 0.04	0.5 ± 0.03	CCCCCCCCCCCCCCCC[P+](C(C)(C)C)(C(C)(C)C)C(C)(C)C [Compound 16a]	1.9 ± 0.1	31.3 ± 2.2	0.5 ± 0.03	1.9 ± 0.1	3.9 ± 0.3			MBC ([1]; Staphylococcus aureus, MRSA, MRSA-1, read-out: Minimum Bactericidal and Fungicidal Concentration (MBC, MFC), MRSA-1): 7.8 ± 0.6 µg/mL; MBC ([2]; Staphylococcus aureus, MRSA, MRSA-2, read-out: Minimum Bactericidal and Fungicidal Concentration (MBC, MFC), MRSA-2): 7.8 ± 0.7 µg/mL; MBC ([5]; Staphylococcus aureus, Sa, read-out: Minimum Bactericidal and Fungicidal Concentration (MBC, MFC), Sa): 0.5 ± 0.03 µg/mL; Minimum Inhibitory Concentration (MIC), Ec ([6]; Ec): 0.9 ± 0.07 µg/mL; Minimum Inhibitory Concentration (MIC), Pa ([7]; Pa): 31.3 ± 2.7 µg/mL; MBC ([7]; Pseudomonas aeruginosa, ATCC9027, Pa, read-out: Minimum Bactericidal and Fungicidal Concentration (MBC, MFC), Pa): 125 ± 9 µg/mL
125 ± 11 (≈ 377 µM)	0.9 ± 0.07 (≈ 2.72 µM)	0.5 ± 0.04 (≈ 1.51 µM)	0.5 ± 0.03 (≈ 1.51 µM)	3.9 ± 0.3 (≈ 11.8 µM)	O=C(O)c1cn(C2CC2)c2cc(N3CCNCC3)c(F)cc2c1=O [Ciprofloxacin, reference compound]								MIC ([7]; Pseudomonas aeruginosa, ATCC9027, Pa, read-out: Minimum Inhibitory Concentration (MIC), Pa): 0.5 ± 0.03 µg/mL (≈ 1.51 µM)
	0.9 ± 0.08	1.9 ± 0.1	0.9 ± 0.07	7.8 ± 0.5	CCCCCCCCCCC[P+](C(C)(C)C)(C(C)(C)C)C(C)(C)C [Compound 11a]	31.3 ± 2.3	125 ± 10	7.8 ± 0.6		62.5 ± 5.7	31.3 ± 2.5	62.5 ± 5.5	Minimum Inhibitory Concentration (MIC), MRSA-1 ([1]; MRSA-1 (resistant to fluoroquinolones and beta-lactams)): 1.9 ± 0.1 µg/mL; Minimum Bactericidal and Fungicidal Concentration (MBC, MFC), MRSA-1 ([1]; MRSA-1): 1.9 ± 0.1 µg/mL; Minimum Bactericidal and Fungicidal Concentration (MBC, MFC), MRSA-2 ([2]; MRSA-2): 7.8 ± 0.6 µg/mL; Minimum Bactericidal and Fungicidal Concentration (MBC, MFC), Sa [5]: 1.9 ± 0.1 µg/mL; MIC ([6]; Escherichia coli, ATCC25922, Ec, read-out: Minimum Inhibitory Concentration (MIC), Ec): 31.3 ± 2.6 µg/mL; Minimum Bactericidal and Fungicidal Concentration (MBC, MFC), Tm [10, 13]: 31.3 ± 2.5 µg/mL
					CC(=O)N1CCN(c2ccc(OCC3COC(Cn4ccnc4)(c4ccc(Cl)cc4Cl)O3)cc2)CC1 (stereo not shown) [Ketoconazole, reference compound]				3.9 ± 0.3	3.9 ± 0.3 (≈ 7.34 µM)	3.9 ± 0.2	3.9 ± 0.3 (≈ 7.34 µM)	MBC [10, 15]: 3.9 ± 0.2 µg/mL (≈ 7.34 µM); MFC [10, 15]: 3.9 ± 0.2 µg/mL (≈ 7.34 µM); MIC ([10]; Trichophyton mentagrophytes, read-out: Minimum Inhibitory Concentration (MIC), Tm): 3.9 ± 0.2 µg/mL (≈ 7.34 µM); MFC [9, 12]: 3.9 ± 0.3 µg/mL (≈ 7.34 µM)
